Data taken from patent US9994535B2, “Desferrithiocin polyether analogues” (University of Florida Research Foundation, Inc., priority 2005, dated 2018).
Values belong to the compound of their own block, whether it stands above or below them.

How the values were obtained:
[1] = Iron clearing efficiency in non-iron overloaded, bile duct cannulated rat model; assay type: in vivo; settings: for Efficiency (%) (iron clearing efficiency): 300 μmol/kg, 24 hour iron excretion, 2:1 ligand-iron complex; for Iron clearing efficiency compared with parent drug (S)-4-(HO)-DADFT: same micromole per kilogram dose
Description: Iron Clearing Efficiency of Iron Chelators in a Non-Iron Overloaded, Bile Duct Cannulated Rat Model
Studies were performed in the non-iron overloaded, bile duct cannulated rodent model with the compounds shown below.
Briefly, male Sprague-Dawley rats averaging 450 g were housed in Nalgene plastic metabolic cages during the experimental period and given free access to water. The animals were anesthetized using sodium pentobarbital (55 mg/kg) administered intraperitoneally. The bile duct was cannulated using 22-gauge polyethylene tubing. The cannula was inserted into the duct about 1 cm from the duodenum and tied snugly in place. After threading through the shoulder, the cannula was passed from the rat to the swivel inside a metal torque-transmitting tether, which was attached to a rodent jacket around the animal's chest. The cannula was directed from the rat to a Gilson microfraction collector (Middleton, Wis.) by a fluid swivel mounted above the metabolic cage. Three hour bile samples were continuously collected for a minimum of 24 hours up to 48 hours. However, the efficiency calculations are based on the 24 hour iron excretion. The efficiency of each chelator was calculated on the basis of a 2:1 ligand-iron complex. The efficiencies in the rodent model were calculated by subtracting the iron excretion of control animals from the iron excretion of treated animals. This number was then divided by the theoretical output; the result is expressed as a percentage (Bergeron, R. J., et al., J. Med Chem. 42:95-108 (1999) the entire contents of which are incorporated herein by reference). The urine sample was taken at 24 hours and handled as previously described in Bergeron, R. J., et al., J. Med. Chem. 34:2072-2078 (1991), the entire contents of which are incorporated herein by reference.

[2] = Tissue and plasma concentrations upon subcutaneous administration to rats; assay type: in vivo; settings: rat, sc 300 μmol/kg
Description: Tissue Distribution of a Polyether-Substituted (S)-4′-Hydroxydesazadesferrithiocin Analogue [(S)-4′-(HO)-DADFT-PE] Upon Subcutaneous Administration to Rats
A measurement was made assessing (S)-4′-(HO)-DADFT-PE and (S)-4′-(HO)-DADFT tissue and plasma concentrations upon subcutaneous administration at times from 2-8 h post dosing. The rats were given this compound subcutaneously at 300 μmol/kg. The tissue and plasma level were obtained as described in Bergeron et al. J Med Chem. 48:821-831 (2005), the entire contents of which are incorporated herein by reference.

Brain concentration of administered compound ([2]; 2 h): 13.2 ± 4.8 nmol/g wet wt | Brain concentration of metabolite of administered compound ([2]; 2 h): <2.4 nmol/g wet wt | Brain concentration of administered compound ([2]; 4 h): 7.4 ± 0.7 nmol/g wet wt | Brain concentration of metabolite of administered compound ([2]; 4 h): <2.4 nmol/g wet wt | Brain concentration of administered compound ([2]; 6 h): 4.8 ± 3.1 nmol/g wet wt | Brain concentration of metabolite of administered compound ([2]; 6 h): <2.4 nmol/g wet wt | Brain concentration of administered compound ([2]; 8 h): <1.6 ± 0.0 nmol/g wet wt | Brain concentration of metabolite of administered compound ([2]; 8 h): <2.4 nmol/g wet wt | Heart concentration of administered compound ([2]; 2 h): 66.2 ± 2.2 nmol/g wet wt | Heart concentration of metabolite of administered compound ([2]; 2 h): 6.4 ± 0.6 nmol/g wet wt | Heart concentration of administered compound ([2]; 4 h): 32.6 ± 3.6 nmol/g wet wt | Heart concentration of metabolite of administered compound ([2]; 4 h): <4.8 nmol/g wet wt | Heart concentration of administered compound ([2]; 6 h): 28.2 ± 0.7 nmol/g wet wt | Heart concentration of metabolite of administered compound ([2]; 6 h): <4.8 nmol/g wet wt | Heart concentration of administered compound ([2]; 8 h): 26.3 ± 9.7 nmol/g wet wt | Heart concentration of metabolite of administered compound ([2]; 8 h): <4.8 nmol/g wet wt | Kidney concentration of administered compound ([2]; 2 h): 97.5 ± 24.5 nmol/g wet wt | Kidney concentration of metabolite of administered compound ([2]; 2 h): 49.9 ± 21.3 nmol/g wet wt | Kidney concentration of administered compound ([2]; 4 h): 57.0 ± 15.5 nmol/g wet wt | Kidney concentration of metabolite of administered compound ([2]; 4 h): 23.2 ± 1.7 nmol/g wet wt | Kidney concentration of administered compound ([2]; 6 h): 67.2 ± 9.9 nmol/g wet wt | Kidney concentration of metabolite of administered compound ([2]; 6 h): 21.7 ± 6.2 nmol/g wet wt | Kidney concentration of administered compound ([2]; 8 h): 67.4 ± 19.9 nmol/g wet wt | Kidney concentration of metabolite of administered compound ([2]; 8 h): 25.3 ± 2.5 nmol/g wet wt | Liver concentration of administered compound ([2]; 2 h): 111.0 ± 14.0 nmol/g wet wt | Liver concentration of metabolite of administered compound ([2]; 2 h): 43.5 ± 4.5 nmol/g wet wt | Liver concentration of administered compound ([2]; 4 h): 73.8 ± 10.8 nmol/g wet wt | Liver concentration of metabolite of administered compound ([2]; 4 h): 24.6 ± 1.1 nmol/g wet wt | Liver concentration of administered compound ([2]; 6 h): 80.9 ± 10.7 nmol/g wet wt | Liver concentration of metabolite of administered compound ([2]; 6 h): 26.9 ± 5.1 nmol/g wet wt | Liver concentration of administered compound ([2]; 8 h): 81.4 ± 15.9 nmol/g wet wt | Liver concentration of metabolite of administered compound ([2]; 8 h): 25.0 ± 3.6 nmol/g wet wt | Pancreas concentration of administered compound ([2]; 2 h): 37.1 ± 3.8 nmol/g wet wt | Pancreas concentration of metabolite of administered compound ([2]; 2 h): 1.3 ± 2.2 nmol/g wet wt | Pancreas concentration of administered compound ([2]; 4 h): 19.4 ± 1.4 nmol/g wet wt | Pancreas concentration of metabolite of administered compound ([2]; 4 h): 0.0 ± 0.0 nmol/g wet wt | Pancreas concentration of administered compound ([2]; 6 h): 16.5 ± 4.5 nmol/g wet wt | Pancreas concentration of metabolite of administered compound ([2]; 6 h): 0.0 ± 0.0 nmol/g wet wt | Pancreas concentration of administered compound ([2]; 8 h): 9.7 ± 0.7 nmol/g wet wt | Pancreas concentration of metabolite of administered compound ([2]; 8 h): 0.0 ± 0.0 nmol/g wet wt | Plasma concentration of administered compound ([2]; plasma, 2 h): 478.8 ± 36.8 µM | Plasma concentration of metabolite of administered compound ([2]; plasma, 2 h): 8.4 ± 1.8 µM | Plasma concentration of administered compound ([2]; plasma, 4 h): 236.3 ± 42.0 µM | Plasma concentration of metabolite of administered compound ([2]; plasma, 4 h): 4.2 ± 1.0 µM | Plasma concentration of administered compound ([2]; plasma, 6 h): 142.5 ± 29.5 µM | Plasma concentration of metabolite of administered compound ([2]; plasma, 6 h): 1.8 ± 0.6 µM | Plasma concentration of administered compound ([2]; plasma, 8 h): 79.6 ± 13.3 µM | Plasma concentration of metabolite of administered compound ([2]; plasma, 8 h): 0.0 ± 0.0 µM
Compound: COc1ccc(C2=N[C@@](C)(C(=O)O)CS2)c(O)c1 [(S)-4′-(CH3O)-DADFT]
Efficiency (%) (iron clearing efficiency) ([1]; p.o.): 6.6 ± 2.8%

Brain concentration of administered compound ([2]; 2 h): 0 ± 0 nmol/g wet wt | Brain concentration of administered compound ([2]; 4 h): 0 ± 0 nmol/g wet wt | Brain concentration of administered compound ([2]; 6 h): 0 ± 0 nmol/g wet wt | Brain concentration of administered compound ([2]; 8 h): 0 ± 0 nmol/g wet wt | Heart concentration of administered compound ([2]; 2 h): 4.6 ± 3^ nmol/g wet wt | Heart concentration of administered compound ([2]; 4 h): 0 ± 0 nmol/g wet wt | Heart concentration of administered compound ([2]; 6 h): 0 ± 0 nmol/g wet wt | Heart concentration of administered compound ([2]; 8 h): 0 ± 0 nmol/g wet wt | Kidney concentration of administered compound ([2]; 2 h): 97.1 ± .50 nmol/g wet wt | Kidney concentration of administered compound ([2]; 4 h): 26.6 ± 7.1 nmol/g wet wt | Kidney concentration of administered compound ([2]; 6 h): 13.0 ± 8.0 nmol/g wet wt | Kidney concentration of administered compound ([2]; 8 h): 8.8 ± 2.9 nmol/g wet wt | Liver concentration of administered compound ([2]; 2 h): 48.3 ± 20.3 nmol/g wet wt | Liver concentration of administered compound ([2]; 4 h): 25.0 ± 3.9 nmol/g wet wt | Liver concentration of administered compound ([2]; 6 h): 19.3 ± 2.0 nmol/g wet wt | Liver concentration of administered compound ([2]; 8 h): 12.3 ± 0.8 nmol/g wet wt | Pancreas concentration of administered compound ([2]; 2 h): 5.8 ± 1.3 nmol/g wet wt | Pancreas concentration of administered compound ([2]; 4 h): 0 ± 0 nmol/g wet wt | Pancreas concentration of administered compound ([2]; 6 h): 0 ± 0 nmol/g wet wt | Pancreas concentration of administered compound ([2]; 8 h): 0 ± 0 nmol/g wet wt | concentration at 2 h ([2]; plasma, 2 h, read-out: Plasma concentration of administered compound): 13.1 ± 2.7 µM | Plasma concentration of administered compound ([2]; plasma, 4 h): 2 ± 0.4 µM | concentration at 6 h ([2]; plasma, 6 h, read-out: Plasma concentration of administered compound): 0 nM | concentration at 8 h ([2]; plasma, 8 h, read-out: Plasma concentration of administered compound): 0 nM
Compound: C[C@]1(C(=O)O)CSC(c2ccc(O)cc2O)=N1 [(S)-4′-(HO)-DADFT, (S)-2-(2,4-dihydroxyphenyl)-4,5-dihydro-4-methyl-4-thiazolecarboxylic acid]
Efficiency (%) (iron clearing efficiency) ([1]; p.o.): 1.0 ± 0.4% | Efficiency (%) (iron clearing efficiency) ([1]; s.c.): 1.1 ± 0.6%

Compound: CCOC(=O)[C@@]1(C)CSC(c2ccc(OCCOCCOCCOC)cc2O)=N1 [(S)-4′-(HO)-DADFT-PE EE]
Efficiency (%) (iron clearing efficiency) ([1]; s.c.): 11.4 ± 0.8% | Iron clearing efficiency compared with parent drug (S)-4-(HO)-DADFT [1]: work better than the parent drug

Compound: COCCOCCOCCOc1ccc(C2=N[C@@](C)(C(=O)OC(C)C)CS2)c(O)c1 [(S)-4′-(HO)-DADFT-PE iPrE]
Efficiency (%) (iron clearing efficiency) ([1]; p.o.): 9.2 ± 4.4% | Efficiency (%) (iron clearing efficiency) ([1]; s.c.): 25.9 ± 9.2% | Iron clearing efficiency of isopropylester vs ethyl ester ([1]; both administered subcutaneously): significantly more efficient | Iron clearing efficiency compared with parent drug (S)-4-(HO)-DADFT [1]: work better than the parent drug

Compound: CC(C)OC(=O)[C@@]1(C)CSC(c2ccc(O)cc2O)=N1 [(S)-4′-(HO)-DADFT-iPrE]
Efficiency (%) (iron clearing efficiency) ([1]; s.c.): 1.98 ± 0.91%
